Inhibition data for 28 compounds are collected here from patent US6150385A, “1,3,4-thiadiazoles useful for the treatment of CMV infections” (Pharmacia & Upjohn Company, priority 1999, dated 2000).

Structures are written as SMILES.

In this test the target is T1, HCMV polymerase (Human cytomegalovirus, UniProt P08546).
T1 construct: made in house; host or cells: SF-9 insect cells infected with recombinant baculovirus
T1 sequence (P08546 whole entry): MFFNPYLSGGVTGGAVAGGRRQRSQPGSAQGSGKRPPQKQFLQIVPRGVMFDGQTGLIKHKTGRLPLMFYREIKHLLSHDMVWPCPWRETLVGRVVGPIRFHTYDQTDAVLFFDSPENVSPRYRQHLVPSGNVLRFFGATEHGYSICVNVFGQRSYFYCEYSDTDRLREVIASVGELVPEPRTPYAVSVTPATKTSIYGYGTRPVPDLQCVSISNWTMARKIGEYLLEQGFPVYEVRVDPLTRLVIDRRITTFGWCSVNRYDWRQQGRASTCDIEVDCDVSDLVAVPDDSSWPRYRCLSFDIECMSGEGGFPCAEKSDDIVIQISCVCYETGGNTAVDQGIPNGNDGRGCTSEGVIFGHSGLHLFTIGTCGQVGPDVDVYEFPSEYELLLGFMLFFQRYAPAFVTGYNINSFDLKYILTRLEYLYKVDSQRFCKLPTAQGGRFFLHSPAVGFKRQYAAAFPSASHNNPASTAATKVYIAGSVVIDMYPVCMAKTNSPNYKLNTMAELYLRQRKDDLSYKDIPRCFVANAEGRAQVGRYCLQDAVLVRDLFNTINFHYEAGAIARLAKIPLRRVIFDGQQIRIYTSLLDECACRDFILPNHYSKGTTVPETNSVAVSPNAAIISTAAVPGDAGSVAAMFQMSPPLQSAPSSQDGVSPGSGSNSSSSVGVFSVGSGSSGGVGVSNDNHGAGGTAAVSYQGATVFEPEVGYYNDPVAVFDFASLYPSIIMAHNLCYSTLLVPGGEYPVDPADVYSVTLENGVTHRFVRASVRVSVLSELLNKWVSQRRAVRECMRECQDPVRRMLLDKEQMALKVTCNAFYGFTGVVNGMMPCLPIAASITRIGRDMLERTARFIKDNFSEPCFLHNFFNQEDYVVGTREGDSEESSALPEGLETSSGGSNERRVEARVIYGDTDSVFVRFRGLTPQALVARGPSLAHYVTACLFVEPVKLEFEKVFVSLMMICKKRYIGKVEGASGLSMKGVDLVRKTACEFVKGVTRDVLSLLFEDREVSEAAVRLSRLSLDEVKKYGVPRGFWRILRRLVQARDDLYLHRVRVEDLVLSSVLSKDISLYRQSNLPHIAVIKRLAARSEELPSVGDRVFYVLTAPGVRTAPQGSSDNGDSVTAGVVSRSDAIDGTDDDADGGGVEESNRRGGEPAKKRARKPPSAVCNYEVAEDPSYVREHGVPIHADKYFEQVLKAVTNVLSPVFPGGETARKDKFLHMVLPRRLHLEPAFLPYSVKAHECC
The test can be described thus: HCMV polymerase assay (scintillation proximity assay). Conditions: percentage of inhibition at 25 μM concentration in CMV polymerase assay. The format is biochemical. Summed up:
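Baculovirus/SF-9-expressed HCMV polymerase in 5.4 mM HEPES pH 7.5, 11.7 mM KCl, 4.5 mM MgCl2, 0.36 mg/ml BSA, 90 nM 3H-dTTP, with or without 2 mM CHAPS. Started with 6 nM biotinylated poly(dA)-oligo(dT), 30 min at 25 or 37 °C, EDTA-stopped, read by streptavidin-SPA counting; % inhibition at 25 μM.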
Background: Scintillation proximity formats need no separation of bound from free tracer.
As to `O=C(Nc1nnc(NCCc2ccccc2)s1)c1cccc([N+](=O)[O-])c1` [compound 411, 3-nitro-N-[5-(phenethylamino)-1,3,4-thiadiazol-2-yl]benzamide], the inhibition (usually the change of the read-out against control, counted positive when it falls) at 25 µM came out at 24.8%.

`O=C(Nc1nnc(NCCCNC2CCCCC2)s1)c1ccc(Cl)c(Cl)c1` [compound 172, 3,4-dichloro-N-(5-{[3-(cyclohexylamino)propyl]amino}-1,3,4-thiadiazol-2-yl)benzamide] had an inhibition at 25 µM of 49.7%.

For `CCCCCCCCCCCNc1nnc(NC(=O)c2ccc(I)cc2)s1` [compound 147, 4-iodo-N-[5-(undecylamino)-1,3,4-thiadiazol-2-yl]benzamide], the inhibition at 25 µM was 54.7%.

`O=C(Nc1nnc(NCCc2ccccc2)s1)c1ccc(I)cc1` [compound 415, 4-iodo-N-[5-(phenethylamino)-1,3,4-thiadiazol-2-yl]benzamide] showed an inhibition at 25 µM of 24.6%.

As for `CCCCCCCC/C=C/CCCCCCCC(=O)Nc1nnc(NCCNC(C)=O)s1` [compound 123, (E)-N-(5-{[2-(acetylamino)ethyl]amino}-1,3,4-thiadiazol-2-yl)-9-octadecenamide], the inhibition at 25 µM came to 59.2%.

For `CCCCCCCCCCCNc1nnc(NC(=O)c2cc3ccccc3s2)s1` [compound 257, N-[5-(undecylamino)-1,3,4-thiadiazol-2-yl]-1-benzothiophene-2-carboxamide], testing at 25 µM gave an inhibition of 39.8%.

For `CCCCCCCC/C=C/CCCCCCCC(=O)Nc1nnc(NCCc2c[nH]c3ccccc23)s1` [compound 149, (E)-N-(5-{[2-(1H-indol-3-yl)ethyl]amino}-1,3,4-thiadiazol-2-yl)-9-octadecenamide], the inhibition at 25 µM came to 54.5%.

`CC(C)c1cc(C(C)C)c(C(=O)Nc2nnc(NC3CCCCCC3)s2)c(C(C)C)c1` [compound 250, N-[5-(cycloheptylamino)-1,3,4-thiadiazol-2-yl]-2,4,6-triisopropylbenzamide] came in with an inhibition at 25 µM of 40.5%.

In turn, `O=C(Nc1nnc(NCCCNC2CCCCC2)s1)c1ccc([N+](=O)[O-])o1` [compound 126, N-(5-{[3-(cyclohexylamino)propyl]amino}-1,3,4-thiadiazol-2-yl)-5-nitro-2-furamide] came in with an inhibition at 25 µM of 58.9%.

`O=C(Nc1nnc(NCc2ccc3c(c2)OCO3)s1)c1ccc(Br)cc1` [compound 273, N-{5-[(1,3-benzodioxol-5-ylmethyl)amino]-1,3,4-thiadiazol-2-yl}-4-bromobenzamide]: 25 µM produced 38.1% inhibition.

In the case of `O=C(/C=C/c1ccccc1)Nc1nnc(NCc2ccc(F)cc2)s1` [compound 326, (E)-N-{5-[(4-fluorobenzyl)amino]-1,3,4-thiadiazol-2-yl}-3-phenyl-2-propenamide], the inhibition at 25 µM is 32.7%.

On to `O=C(Nc1nnc(NCc2ccc3c(c2)OCO3)s1)c1ccc2c(c1)C(=O)OC2=O` [compound 20, N-{5-[(1,3-benzodioxol-5-ylmethyl)amino]-1,3,4-thiadiazol-2-yl}-1,3-dioxo-1,3-dihydro-2-benzofuran-5-carboxamide], for which the inhibition at 25 µM turned out to be 97.7%.

The compound `CC(C)(C)OC(=O)CCNc1nnc(NC(=O)/C=C/c2ccccc2Cl)s1` [compound 426, tert-butyl 3-[(5-{[(E)-3-(2-chlorophenyl)-2-propenoyl]amino}-1,3,4-thiadiazol-2-yl)amino]propanoate] yielded an inhibition at 25 µM of 23.5%.

Compound `COc1ccccc1C(=O)Nc1nnc(NCC(c2ccccc2)c2ccccc2)s1` [compound 224, N-{5-[(2,2-diphenylethyl)amino]-1,3,4-thiadiazol-2-yl}-2-methoxybenzamide] had an inhibition at 25 µM of 43%.

For the compound `O=C(Nc1nnc(NCC(c2ccccc2)c2ccccc2)s1)c1c(Cl)cccc1Cl` [compound 56, 2,6-dichloro-N-{5-[(2,2-diphenylethyl)amino]-1,3,4-thiadiazol-2-yl}benzamide], the inhibition at 25 µM stood at 77.4%.

With `NS(=O)(=O)c1ccc(CCNc2nnc(NC(=O)c3cc4ccccc4s3)s2)cc1` [compound 267, N-(5-{[4-(aminosulfonyl)phenethyl]amino}-1,3,4-thiadiazol-2-yl)-1-benzothiophene-2-carboxamide], the inhibition at 25 µM was determined as 38.7%.

Turning to `CC(C)c1cc(C(C)C)c(C(=O)Nc2nnc(NCCN(C)C)s2)c(C(C)C)c1` [compound 444, N-(5-{[2-(dimethylamino)ethyl]amino}-1,3,4-thiadiazol-2-yl)-2,4,6-triisopropylbenzamide], the inhibition at 25 µM is 21.9%.

Compound `CC(C)(C)OC(=O)CCNc1nnc(NC(=O)c2ccc(Cl)c(Cl)c2)s1` [compound 420, tert-butyl 3-({5-[(3,4-dichlorobenzoyl)amino]-1,3,4-thiadiazol-2-yl}amino)propanoate] had an inhibition at 25 µM of 24.1%.

`CC(C)(C)OC(=O)CCNc1nnc(NC(=O)c2ccc(C(F)(F)F)cc2)s1` [compound 407, tert-butyl 3-[(5-{[4-(trifluoromethyl)benzoyl]amino}-1,3,4-thiadiazol-2-yl)amino]propanoate] had an inhibition at 25 µM of 25%.

Consider `CCOc1ccc2ccccc2c1C(=O)Nc1nnc(NCCc2cccs2)s1` [compound 97, 2-ethoxy-N-(5-{[2-(2-thienyl)ethyl]amino}-1,3,4-thiadiazol-2-yl)-1-naphthamide], for which testing at 25 µM gave an inhibition of 65.8%.

The compound `CCCCCCCCCCCNc1nnc(NC(=O)CCCCCl)s1` [compound 106, 5-chloro-N-[5-(undecylamino)-1,3,4-thiadiazol-2-yl]pentanamide] showed an inhibition at 25 µM of 64.2%.

`CCCCCCCC/C=C/CCCCCCCC(=O)Nc1nnc(NC2CCN(C(=O)OCC)CC2)s1` [compound 91, ethyl 4-({5-[(E)-9-octadecenoylamino]-1,3,4-thiadiazol-2-yl}amino)tetrahydro-1(2H)-pyridinecarboxylate]: the inhibition at 25 µM was determined as 66.1%.

In turn, `O=C(Nc1nnc(NC2CCCc3ccccc32)s1)c1c(Cl)cccc1Cl` (stereo not shown) [compound 76, 2,6-dichloro-N-[5-(1,2,3,4-tetrahydro-1-naphthalenylamino)-1,3,4-thiadiazol-2-yl]benzamide] gave an inhibition at 25 µM of 68.5%.

`CCOc1ccc2ccccc2c1C(=O)Nc1nnc(NCCC(c2ccccc2)c2ccccc2)s1` [compound 61, N-{5-[(3,3-diphenylpropyl)amino]-1,3,4-thiadiazol-2-yl}-2-ethoxy-1-naphthamide] returned an inhibition at 25 µM of 74.2%.

The compound `O=C(Nc1nnc(NCCCNC2CCCCC2)s1)c1cccc([N+](=O)[O-])c1` [compound 137, N-(5-{[3-(cyclohexylamino)propyl]amino}-1,3,4-thiadiazol-2-yl)-3-nitrobenzamide] showed an inhibition at 25 µM of 56.4%.

`N#Cc1ccc(C(=O)Nc2nnc(NCCC(c3ccccc3)c3ccccc3)s2)cc1` [compound 46, 4-cyano-N-{5-[(3,3-diphenylpropyl)amino]-1,3,4-thiadiazol-2-yl}benzamide] registered an inhibition at 25 µM of 82.3%.

`O=C(Nc1nnc(NCCC(c2ccccc2)c2ccccc2)s1)c1cc2ccccc2s1` [compound 277, N-{5-[(3,3-diphenylpropyl)amino]-1,3,4-thiadiazol-2-yl}-1-benzothiophene-2-carboxamide] showed an inhibition at 25 µM of 37.9%.

`CCCCC(CC)CNc1nnc(NC(=O)c2ccc3c(c2)C(=O)OC3=O)s1` (stereo not shown) [compound 116, N-{5-[(2-ethylhexyl)amino]-1,3,4-thiadiazol-2-yl}-1,3-dioxo-1,3-dihydro-2-benzofuran-5-carboxamide] showed an inhibition at 25 µM of 61.9%.
